ChEMBL document CHEMBL6109139, “Rational Design of the First Dual Agonist at Trace Amine-Associated Receptor 1 and 5-HT2C Receptors Based on Binding Pocket Similarity for the Treatment of Schizophrenia and Alzheimer's Disease-Related Psychosis” (J Med Chem, 2025)
pIC50: −log10 of the molar value. Calls of active or inactive are those of the source. The calls are words filed in the database; no cut-off is given here.

What was measured:
[1] = Toxicity in female Beagle dog assessed as change in urinalysis at 0.75 to 2.5 mg/kg, IG administered once daily for 4 weeks and measured after 4 weeks; type: organism-based, Canis lupus familiaris; conditions: in vivo, po, 1344 h, dose 0.75-2.5 mg/kg, time 8 weeks
Mus musculus [2] = experiment: Antipsychotic activity in amyloid beta(1 to 42) induced cognitive impairment in mouse model assessed as reduction in exploration time at 1 mg/kg, IG measured after 24 hrs by novel object recognition test; type: functional, organism-based
[3] = target: Trace amine-associated receptor 1 (Rattus norvegicus) (UniProt Q923Y9); experiment: Agonist activity at rat TAAR1 by measuring maximum efficacy relative to control; type: functional; conditions: filed as agonist
Cytochrome P450 2C19 = Cytochrome P450 2C19 (Homo sapiens, UniProt P33261); experiment: Inhibition of CYP2C19 in human liver microsomes in presence of NADPH by LC-MS/MS analysis; type: ADME, Microsome
[4] = AUClast in male mouse at 10 mg/kg, IG measured after 24 hrs; type: ADME, organism-based; conditions: in vivo, po
[5] = Drug concentration in male Sprague-Dawley rat brain at 5 mg/kg, IG measured after 6 hrs by LC-MS/MS analysis; type: ADME, organism-based; conditions: in vivo, po
Mus musculus [6] = experiment: Antipsychotic activity against MK-801 induced hyperlocomotion in male C57BL/6J mouse model at 3 mg/kg, IG […] followed by compound addition and measured after 30 mins by open field test; type: functional, organism-based
[7] = target: Sodium-dependent dopamine transporter (Homo sapiens) (UniProt Q01959); experiment: Binding affinity to DAT receptor (unknown origin) at 10 uM by radioligand binding assay relative to control
[8] = target: Sodium-dependent noradrenaline transporter (Homo sapiens) (UniProt P23975); experiment: Binding affinity to NET receptor (unknown origin) at 10 uM by radioligand binding assay relative to control
[9] = Inhibition of CYP2D6 in human liver microsomes in presence of NADPH by LC-MS/MS analysis; type: ADME, Microsome
[10] = target: Beta-1 adrenergic receptor (Homo sapiens) (UniProt P08588); experiment: Binding affinity to beta 1 receptor (unknown origin) at 10 uM by radioligand binding assay relative to control
Cytochrome P450 2B6 = Cytochrome P450 2B6 (Homo sapiens, UniProt P20813); experiment: Inhibition of CYP2B6 in human liver microsomes in presence of NADPH by LC-MS/MS analysis; type: ADME, Microsome
[11] = Toxicity in Sprague-Dawley rat assessed as dyskinesia 2.5 to 7.5 mg/kg, po administered once daily for 4 weeks; type: organism-based; conditions: in vivo, 672 h, dose 2.5-7.5 mg/kg
[12] = Toxicity in male Sprague-Dawley rat assessed as minimal corneal neovascularization at 7.5 mg/kg, po administered once daily for 4 weeks; type: organism-based; conditions: in vivo, 672 h
[13] = Toxicity in male Sprague-Dawley rat assessed as piloerection at 7.5 mg/kg, po administered once daily for 4 weeks; type: organism-based; conditions: in vivo, 672 h
Nav1.5 = Nav1.5 (Homo sapiens, UniProt Q14524); experiment: Binding affinity to human Nav1.5 receptor at 10 uM by radioligand binding assay relative to control; conditions: read-out: Activity
[14] = Plasma protein binding in dog assessed as unbound fraction by LC-MS/MS analysis; type: ADME, cell-free, Canis lupus familiaris
Mus musculus [15] = experiment: Antipsychotic activity against MK-801 induced hypermobilization in male C57BL/6J mouse model assessed as reduction in hypermobilization state at 10 mg/kg, IG pretreated with compound followed by MK-801 addition and measured after 30 mins by open field test; type: functional, organism-based
[16] = Toxicity in male Sprague-Dawley rat assessed as change in clinical chemistry at 2.5 to 7.5 mg/kg, po administered once daily for 4 weeks and measured after 4 weeks; type: organism-based; conditions: in vivo, 1344 h, dose 2.5-7.5 mg/kg, time 8 weeks
[17] = Toxicity in Sprague-Dawley rat assessed as fasciculation 2.5 to 7.5 mg/kg, po administered once daily for 4 weeks; type: organism-based; conditions: in vivo, 672 h, dose 2.5-7.5 mg/kg

Sodium-dependent dopamine transporter (Homo sapiens), sequence (Q01959 whole entry): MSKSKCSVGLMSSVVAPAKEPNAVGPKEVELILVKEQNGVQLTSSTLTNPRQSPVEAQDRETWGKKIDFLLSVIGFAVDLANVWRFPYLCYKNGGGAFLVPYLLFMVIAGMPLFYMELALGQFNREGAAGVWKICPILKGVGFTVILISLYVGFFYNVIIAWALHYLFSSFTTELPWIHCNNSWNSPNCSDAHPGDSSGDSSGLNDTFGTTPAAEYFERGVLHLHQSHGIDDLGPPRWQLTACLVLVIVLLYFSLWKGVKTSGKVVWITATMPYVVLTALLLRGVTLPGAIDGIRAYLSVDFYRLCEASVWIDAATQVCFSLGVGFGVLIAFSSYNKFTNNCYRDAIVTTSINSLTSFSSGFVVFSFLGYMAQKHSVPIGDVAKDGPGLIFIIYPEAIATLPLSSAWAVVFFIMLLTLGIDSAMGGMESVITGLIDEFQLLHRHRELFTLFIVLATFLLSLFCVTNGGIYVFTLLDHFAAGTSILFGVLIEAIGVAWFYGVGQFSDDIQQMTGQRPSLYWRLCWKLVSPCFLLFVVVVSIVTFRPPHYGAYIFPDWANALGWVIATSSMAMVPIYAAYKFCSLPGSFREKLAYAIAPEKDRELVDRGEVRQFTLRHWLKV
Cytochrome P450 2B6, sequence (P20813 whole entry): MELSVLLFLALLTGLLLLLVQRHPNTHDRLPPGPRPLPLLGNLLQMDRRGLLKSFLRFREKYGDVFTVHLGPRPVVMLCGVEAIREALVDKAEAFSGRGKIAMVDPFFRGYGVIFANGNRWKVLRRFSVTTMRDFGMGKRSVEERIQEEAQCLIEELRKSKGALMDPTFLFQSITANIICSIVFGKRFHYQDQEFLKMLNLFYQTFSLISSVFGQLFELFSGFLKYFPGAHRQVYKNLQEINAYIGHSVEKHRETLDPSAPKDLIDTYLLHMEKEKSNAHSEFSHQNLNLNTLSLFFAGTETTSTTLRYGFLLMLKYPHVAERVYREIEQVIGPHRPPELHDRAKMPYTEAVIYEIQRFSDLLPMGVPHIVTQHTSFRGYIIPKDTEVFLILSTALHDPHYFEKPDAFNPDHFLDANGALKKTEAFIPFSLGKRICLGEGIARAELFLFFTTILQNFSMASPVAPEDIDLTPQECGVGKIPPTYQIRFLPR
Beta-1 adrenergic receptor (Homo sapiens), sequence (P08588 whole entry, looked up): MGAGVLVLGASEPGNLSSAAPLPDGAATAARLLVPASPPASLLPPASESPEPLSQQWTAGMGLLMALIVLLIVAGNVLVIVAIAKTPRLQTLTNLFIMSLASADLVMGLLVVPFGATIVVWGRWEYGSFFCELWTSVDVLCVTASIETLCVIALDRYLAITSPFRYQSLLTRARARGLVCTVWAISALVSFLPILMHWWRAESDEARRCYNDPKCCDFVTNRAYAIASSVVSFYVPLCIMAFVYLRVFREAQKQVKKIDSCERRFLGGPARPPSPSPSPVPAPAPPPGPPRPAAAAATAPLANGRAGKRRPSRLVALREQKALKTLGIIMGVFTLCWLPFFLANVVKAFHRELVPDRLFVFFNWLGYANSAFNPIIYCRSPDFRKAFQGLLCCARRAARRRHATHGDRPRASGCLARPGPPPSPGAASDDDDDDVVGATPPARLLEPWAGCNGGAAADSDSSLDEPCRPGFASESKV
Nav1.5, sequence (Q14524 whole entry): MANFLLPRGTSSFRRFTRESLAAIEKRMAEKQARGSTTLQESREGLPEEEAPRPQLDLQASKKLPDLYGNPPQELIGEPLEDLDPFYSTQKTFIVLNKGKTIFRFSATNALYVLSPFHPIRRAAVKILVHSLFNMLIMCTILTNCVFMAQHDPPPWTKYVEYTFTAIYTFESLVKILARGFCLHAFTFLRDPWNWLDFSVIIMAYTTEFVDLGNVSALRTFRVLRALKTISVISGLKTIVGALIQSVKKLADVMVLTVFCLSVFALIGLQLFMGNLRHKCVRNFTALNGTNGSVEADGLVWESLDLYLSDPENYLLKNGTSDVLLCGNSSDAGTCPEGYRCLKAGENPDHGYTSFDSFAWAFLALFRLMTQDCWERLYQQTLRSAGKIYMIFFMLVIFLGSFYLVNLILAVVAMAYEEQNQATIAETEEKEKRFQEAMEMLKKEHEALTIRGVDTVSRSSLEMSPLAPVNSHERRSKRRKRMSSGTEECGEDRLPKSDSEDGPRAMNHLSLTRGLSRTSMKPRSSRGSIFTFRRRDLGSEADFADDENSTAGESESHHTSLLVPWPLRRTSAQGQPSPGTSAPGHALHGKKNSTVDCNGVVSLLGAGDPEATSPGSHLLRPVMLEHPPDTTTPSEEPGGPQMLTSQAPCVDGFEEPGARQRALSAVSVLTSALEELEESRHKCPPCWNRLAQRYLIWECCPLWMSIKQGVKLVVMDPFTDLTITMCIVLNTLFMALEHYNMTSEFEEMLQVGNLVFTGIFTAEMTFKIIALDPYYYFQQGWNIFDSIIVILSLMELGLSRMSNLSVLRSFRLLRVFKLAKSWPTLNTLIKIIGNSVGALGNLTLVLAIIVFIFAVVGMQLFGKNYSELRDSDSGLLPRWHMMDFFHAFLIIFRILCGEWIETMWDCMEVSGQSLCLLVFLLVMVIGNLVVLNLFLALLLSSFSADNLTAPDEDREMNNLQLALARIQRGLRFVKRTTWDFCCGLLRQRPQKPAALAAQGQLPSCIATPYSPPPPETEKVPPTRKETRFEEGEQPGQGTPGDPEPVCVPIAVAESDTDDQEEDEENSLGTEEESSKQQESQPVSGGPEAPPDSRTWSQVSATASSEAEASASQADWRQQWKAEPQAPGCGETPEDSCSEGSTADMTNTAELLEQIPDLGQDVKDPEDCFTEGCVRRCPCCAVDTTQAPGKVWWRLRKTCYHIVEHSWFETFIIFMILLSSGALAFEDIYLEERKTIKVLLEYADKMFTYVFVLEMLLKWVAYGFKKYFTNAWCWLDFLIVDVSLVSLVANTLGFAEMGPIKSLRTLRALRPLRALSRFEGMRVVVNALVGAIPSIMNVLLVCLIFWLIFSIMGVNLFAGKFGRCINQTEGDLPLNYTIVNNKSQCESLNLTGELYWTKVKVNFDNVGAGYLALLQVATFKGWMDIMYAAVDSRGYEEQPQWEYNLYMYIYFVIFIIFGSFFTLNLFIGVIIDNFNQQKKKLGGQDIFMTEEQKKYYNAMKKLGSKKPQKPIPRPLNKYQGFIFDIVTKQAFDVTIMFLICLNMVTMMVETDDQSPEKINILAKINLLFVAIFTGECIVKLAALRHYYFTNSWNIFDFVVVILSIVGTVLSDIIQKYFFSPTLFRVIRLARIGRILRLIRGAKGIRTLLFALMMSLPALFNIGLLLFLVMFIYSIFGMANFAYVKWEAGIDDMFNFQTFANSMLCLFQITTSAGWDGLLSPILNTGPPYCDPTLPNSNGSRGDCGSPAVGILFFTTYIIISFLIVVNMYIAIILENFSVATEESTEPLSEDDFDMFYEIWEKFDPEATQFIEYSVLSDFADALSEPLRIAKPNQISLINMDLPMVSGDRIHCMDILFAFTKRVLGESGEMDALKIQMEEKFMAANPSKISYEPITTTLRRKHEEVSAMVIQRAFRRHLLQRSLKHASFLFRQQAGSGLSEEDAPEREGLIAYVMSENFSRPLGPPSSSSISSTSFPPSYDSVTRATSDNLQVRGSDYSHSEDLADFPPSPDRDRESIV
Cytochrome P450 2C19, sequence (P33261 whole entry): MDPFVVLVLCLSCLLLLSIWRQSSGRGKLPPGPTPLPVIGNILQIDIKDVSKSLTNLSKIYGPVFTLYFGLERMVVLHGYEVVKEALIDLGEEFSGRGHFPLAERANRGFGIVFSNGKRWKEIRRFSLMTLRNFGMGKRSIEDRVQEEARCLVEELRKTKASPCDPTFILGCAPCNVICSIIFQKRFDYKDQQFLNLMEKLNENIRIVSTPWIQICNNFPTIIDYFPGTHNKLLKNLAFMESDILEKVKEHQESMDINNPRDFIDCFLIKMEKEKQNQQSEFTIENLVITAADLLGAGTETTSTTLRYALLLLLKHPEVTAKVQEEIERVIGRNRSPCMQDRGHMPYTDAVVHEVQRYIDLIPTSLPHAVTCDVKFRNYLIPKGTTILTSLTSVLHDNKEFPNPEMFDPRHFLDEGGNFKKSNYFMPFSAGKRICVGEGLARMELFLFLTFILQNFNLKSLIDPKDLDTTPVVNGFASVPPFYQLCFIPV
Trace amine-associated receptor 1 (Rattus norvegicus), sequence (Q923Y9 whole entry): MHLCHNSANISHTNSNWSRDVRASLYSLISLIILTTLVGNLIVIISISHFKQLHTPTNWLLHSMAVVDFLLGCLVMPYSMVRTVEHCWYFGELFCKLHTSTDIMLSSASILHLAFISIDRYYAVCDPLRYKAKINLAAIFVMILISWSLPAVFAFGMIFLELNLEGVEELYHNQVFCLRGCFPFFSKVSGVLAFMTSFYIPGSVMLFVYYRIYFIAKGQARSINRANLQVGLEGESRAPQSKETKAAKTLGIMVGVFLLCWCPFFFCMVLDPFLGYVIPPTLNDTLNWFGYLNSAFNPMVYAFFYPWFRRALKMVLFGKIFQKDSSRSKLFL
Sodium-dependent noradrenaline transporter (Homo sapiens), sequence (P23975 whole entry): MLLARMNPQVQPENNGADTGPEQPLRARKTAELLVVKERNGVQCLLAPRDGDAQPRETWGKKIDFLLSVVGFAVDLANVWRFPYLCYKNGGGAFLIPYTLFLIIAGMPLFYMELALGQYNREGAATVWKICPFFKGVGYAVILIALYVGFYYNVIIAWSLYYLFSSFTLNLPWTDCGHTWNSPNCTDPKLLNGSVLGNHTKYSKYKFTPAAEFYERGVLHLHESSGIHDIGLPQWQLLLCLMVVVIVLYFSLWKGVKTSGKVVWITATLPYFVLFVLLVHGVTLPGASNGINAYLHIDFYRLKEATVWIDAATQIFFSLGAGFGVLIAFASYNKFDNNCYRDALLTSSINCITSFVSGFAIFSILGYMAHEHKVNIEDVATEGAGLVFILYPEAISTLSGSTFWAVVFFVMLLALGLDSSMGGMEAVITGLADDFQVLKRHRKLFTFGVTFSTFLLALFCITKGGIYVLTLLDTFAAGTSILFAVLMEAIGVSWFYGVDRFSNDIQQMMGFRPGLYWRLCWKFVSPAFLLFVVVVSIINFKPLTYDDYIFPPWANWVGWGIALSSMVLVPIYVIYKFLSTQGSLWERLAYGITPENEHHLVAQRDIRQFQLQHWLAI

c1cc2c(s1)[C@@H]1CNCCN1CC2
Activity [1]: Non-toxic
Activity (Mus musculus [2]): Active
Emax [3]: 99.5%
pIC50 (Cytochrome P450 2C19): < 4.30
AUC(0-t) at 24 h [4]: 21.6 µM·h
Ct [5]: 3832 nmol/kg
Activity (Mus musculus [6]): inactive
Activity [7]: -6.53%
Activity [8]: 8.57%
pIC50 [9]: < 4.30
Activity [10]: -0.11%
pIC50 (Cytochrome P450 2B6): < 4.30
Activity [11]: Non-toxic
Activity [12]: Toxic
Activity [13]: Toxic
activity at 10 µM (Nav1.5): 13.4%
fraction unbound [14]: 0.761
Activity (Mus musculus [15]): Active; Similar Effect Observed Compared To Brexpiprazole
Activity [16]: Non-toxic
Activity [17]: Non-toxic
